Source: US7319098B2, “1,3-dioxoisoindole derivatives having selective antagonism of T-type calcium channel” (Korea Institute of Science and Technology, priority 2006, dated 2008)

target: T1, α1G T-type Ca2+ channels (Homo sapiens, UniProt O43497); test: Screening of activity against T-type calcium channel with FDSS6000 (fluorescence, KCl-induced [Ca2+]i increase); type: cell-based; conditions: 100 μM; HEK293 cells expressing α1G and Kir2.1; read-out: Inhibitory effect (%) of T-type calcium channel, Inhibition (%)
T1 construct: expressed in transfected cells; host or cells: HEK293 cells stably expressing α1G and Kir2.1
T1 sequence (O43497 whole entry): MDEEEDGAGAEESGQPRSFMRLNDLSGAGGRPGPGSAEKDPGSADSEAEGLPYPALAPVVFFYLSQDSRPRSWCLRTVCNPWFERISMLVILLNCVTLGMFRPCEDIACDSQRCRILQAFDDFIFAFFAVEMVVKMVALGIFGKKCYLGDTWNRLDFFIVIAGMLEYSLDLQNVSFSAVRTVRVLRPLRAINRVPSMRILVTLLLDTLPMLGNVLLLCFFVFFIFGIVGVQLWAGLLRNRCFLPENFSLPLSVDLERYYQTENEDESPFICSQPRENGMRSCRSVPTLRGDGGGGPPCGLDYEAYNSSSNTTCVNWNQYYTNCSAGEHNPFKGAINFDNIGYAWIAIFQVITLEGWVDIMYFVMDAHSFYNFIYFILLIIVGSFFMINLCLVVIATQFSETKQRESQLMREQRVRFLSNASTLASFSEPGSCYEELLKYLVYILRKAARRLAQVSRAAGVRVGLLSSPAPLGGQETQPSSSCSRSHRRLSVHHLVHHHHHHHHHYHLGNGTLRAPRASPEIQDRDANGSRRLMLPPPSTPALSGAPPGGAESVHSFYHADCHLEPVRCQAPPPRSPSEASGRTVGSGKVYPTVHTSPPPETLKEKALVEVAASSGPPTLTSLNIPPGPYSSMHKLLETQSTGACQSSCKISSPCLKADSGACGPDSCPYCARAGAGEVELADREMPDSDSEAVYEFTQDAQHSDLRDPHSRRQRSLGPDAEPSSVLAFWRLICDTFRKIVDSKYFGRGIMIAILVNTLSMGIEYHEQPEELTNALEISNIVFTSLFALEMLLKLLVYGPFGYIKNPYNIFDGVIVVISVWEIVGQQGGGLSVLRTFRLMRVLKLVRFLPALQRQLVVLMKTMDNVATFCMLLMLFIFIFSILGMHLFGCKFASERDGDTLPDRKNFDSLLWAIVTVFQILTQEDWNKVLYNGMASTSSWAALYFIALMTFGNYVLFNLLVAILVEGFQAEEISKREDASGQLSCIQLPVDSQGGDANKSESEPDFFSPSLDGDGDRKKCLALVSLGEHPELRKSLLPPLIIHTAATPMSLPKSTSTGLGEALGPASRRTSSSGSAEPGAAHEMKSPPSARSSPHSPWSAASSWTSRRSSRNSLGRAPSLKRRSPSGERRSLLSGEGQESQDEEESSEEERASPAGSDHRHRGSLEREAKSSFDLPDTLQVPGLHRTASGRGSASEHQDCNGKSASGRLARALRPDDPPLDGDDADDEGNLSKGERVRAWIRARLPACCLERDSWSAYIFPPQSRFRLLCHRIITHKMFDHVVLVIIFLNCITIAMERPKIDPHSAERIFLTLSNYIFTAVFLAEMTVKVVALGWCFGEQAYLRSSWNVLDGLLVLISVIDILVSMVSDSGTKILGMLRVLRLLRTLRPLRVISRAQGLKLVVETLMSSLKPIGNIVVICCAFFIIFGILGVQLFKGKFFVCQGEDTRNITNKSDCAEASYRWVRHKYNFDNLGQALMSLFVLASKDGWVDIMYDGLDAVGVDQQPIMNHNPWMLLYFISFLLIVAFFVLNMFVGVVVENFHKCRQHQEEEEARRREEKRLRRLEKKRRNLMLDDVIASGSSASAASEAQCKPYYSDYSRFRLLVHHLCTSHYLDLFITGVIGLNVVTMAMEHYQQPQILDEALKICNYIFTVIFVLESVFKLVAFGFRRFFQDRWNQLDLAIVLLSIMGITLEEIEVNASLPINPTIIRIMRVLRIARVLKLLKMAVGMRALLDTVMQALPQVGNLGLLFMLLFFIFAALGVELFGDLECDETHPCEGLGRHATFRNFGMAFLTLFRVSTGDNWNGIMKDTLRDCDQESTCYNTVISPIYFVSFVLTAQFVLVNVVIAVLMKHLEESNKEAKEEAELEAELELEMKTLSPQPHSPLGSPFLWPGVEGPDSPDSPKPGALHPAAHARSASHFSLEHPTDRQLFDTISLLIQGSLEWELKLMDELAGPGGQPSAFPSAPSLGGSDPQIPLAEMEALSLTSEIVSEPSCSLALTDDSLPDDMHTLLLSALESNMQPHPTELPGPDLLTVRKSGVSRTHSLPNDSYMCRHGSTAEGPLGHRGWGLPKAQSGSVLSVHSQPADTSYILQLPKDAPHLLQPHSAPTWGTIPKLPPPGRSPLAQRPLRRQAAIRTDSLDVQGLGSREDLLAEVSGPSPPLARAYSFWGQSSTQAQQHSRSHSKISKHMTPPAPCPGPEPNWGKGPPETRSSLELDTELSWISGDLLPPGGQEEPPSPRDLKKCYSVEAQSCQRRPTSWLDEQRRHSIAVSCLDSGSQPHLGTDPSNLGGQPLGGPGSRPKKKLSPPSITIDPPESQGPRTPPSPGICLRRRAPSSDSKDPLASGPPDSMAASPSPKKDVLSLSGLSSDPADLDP
Experimental: Meanwhile, the antagonistic activity of the novel compound of Formula (1) herein against T-type calcium channel was tested as described below. The synthesized compounds were tested for the activity against T-type calcium channel with FDSS6000. Compounds with good activity were selected and IC50 values were exactly obtained by using electrophysiological whole cell patch clamp method. HEK293 cells which stably express both α1G and Kir2.1 subunits were grown in Dulbecco's modified Eagle's medium supplemented with 10% (v/v) fetal bovine serum, penicillin (100 U/mL), streptomycin (100 μg/mL), geneticin (500 μg/mL), and +puromycin (I μg/mL) at 37° C. in a humid atmosphere of 5% CO2 and 95% air. Cells were seeded into 96-well black wall clear bottom plates at a density of 4×10^4 cells/well and were used the next day for high-throughput screening (HTS) FDSS6000 assay. For FDSS6000 assay, cells were incubated for 60 min at room temperature with 5 μM fluo3/AM and 0.001% Pluronic F-127 in a HEPES-buffered solution composed of (in mM): 115 NaCl, 5.4 KCl, 0.8 MgCl2, 1.8 CaCl2, 20 HEPES, 13.8 glucose (pH 7.4). During the fluorescence-based FDSS6000 assay, cells in HEPES-buffered solution containing 10 mM CaCl2 were pretreated with a certain concentration of test compounds and then treated with high concentration of KCl ([…]). α1G T-type Ca^2+ channels were activated by using high concentration of KCl (70 mM) and the increase in [Ca^2+]i by KCl-induced depolarization was detected. During the whole procedure, cells were washed using the BIO-TEK 96-well washer. All data were collected and analyzed using FDSS6000 and related software (Hamamatsu, Japan). The IC50 results of examining the inhibitory effects of the compounds herein selected with FDSS6000 on the calcium influx through the T-type calcium channel are provided in TABLEs 1 and 2.

| Structure (SMILES) | inhibition at 100 µM [%] |
| --- | --- |
| CC1CCCCN1CCCNC(=O)c1ccc2c(c1)C(=O)N(c1ccccc1)C2=O (stereo not drawn) [Compound 2, 1-{3-[(1,3-dioxo-2-phenyl-2,3-dihydro-1H-isoindol-5-carbonyl)-amino]-propyl}-2-methyl-piperidinium chloride] | 33.8 |
| O=C(NCCCN1CCOCC1)c1ccc2c(c1)C(=O)N(c1ccccc1)C2=O [Compound 6, 4-{3-[(1,3-dioxo-2-phenyl-2,3-dihydro-1H-isoindol-5-carbonyl)-amino]-propyl}-4-morpholinium chloride] | 22.3 |
| O=C(NCCN1CCCCC1)c1ccc2c(c1)C(=O)N(c1ccccc1F)C2=O [Compound 7, 1-(2-{[2-(2-fluoro-phenyl)-1,3-dioxo-2,3-dihydro-1H-isoindol-5-carbonyl]-amino}-ethyl)-piperidinium chloride] | 40.6 |
| CC1CCCCN1CCCNC(=O)c1ccc2c(c1)C(=O)N(c1ccccc1F)C2=O (stereo not drawn) [Compound 8, 1-(3-{[2-(2-fluoro-phenyl)-1,3-dioxo-2,3-dihydro-1H-isoindol-5-carbonyl]-amino}-propyl)-2-methyl-piperidinium chloride] | 36.8 |
| O=C(NCCCN1CCCC1)c1ccc2c(c1)C(=O)N(c1ccccc1F)C2=O [Compound 10, 1-(3-{[2-(2-fluoro-phenyl)-1,3-dioxo-2,3-dihydro-1H-isoindol-5-carbonyl]-amino}-propyl)-pyrrolidinium chloride] | 32.5 |
| O=C(NCCN1CCOCC1)c1ccc2c(c1)C(=O)N(c1ccccc1F)C2=O [Compound 11, 4-(2-{[2-(2-fluoro-phenyl)-1,3-dioxo-2,3-dihydro-1H-isoindol-5-carbonyl]-amino}-ethyl)-4-morpholinium chloride] | 22.7 |
| O=C(NCCCN1CCOCC1)c1ccc2c(c1)C(=O)N(c1ccccc1F)C2=O [Compound 12, 4-(3-{[2-(2-fluoro-phenyl)-1,3-dioxo-2,3-dihydro-1H-isoindol-5-carbonyl]-amino}-propyl)-4-morpholinium chloride] | 21.1 |
| O=C(NCCN1CCCCC1)c1ccc2c(c1)C(=O)N(c1cccc(F)c1)C2=O [Compound 13, 1-(2-{[2-(3-fluoro-phenyl)-1,3-dioxo-2,3-dihydro-1H-isoindol-5-carbonyl]-amino}-ethyl)-piperidinium chloride] | 43 |
| CC1CCCCN1CCCNC(=O)c1ccc2c(c1)C(=O)N(c1cccc(F)c1)C2=O (stereo not drawn) [Compound 14, 1-(3-{[2-(3-fluoro-phenyl)-1,3-dioxo-2,3-dihydro-1H-isoindol-5-carbonyl]-amino}-propyl)-2-methyl-piperidinium chloride] | 44.2 |
| O=C(NCCCN1CCCC1)c1ccc2c(c1)C(=O)N(c1cccc(F)c1)C2=O [Compound 16, 1-(3-{[2-(3-fluoro-phenyl)-1,3-dioxo-2,3-dihydro-1H-isoindol-5-carbonyl]-amino}-propyl)-pyrrolidinium chloride] | 30 |
| O=C(NCCN1CCOCC1)c1ccc2c(c1)C(=O)N(c1cccc(F)c1)C2=O [Compound 17, 4-(2-{[2-(3-fluoro-phenyl)-1,3-dioxo-2,3-dihydro-1H-isoindol-5-carbonyl]-amino}-ethyl)-4-morpholinium chloride] | 29.2 |
| O=C(NCCCN1CCOCC1)c1ccc2c(c1)C(=O)N(c1cccc(F)c1)C2=O [Compound 18, 4-(3-{[2-(3-fluoro-phenyl)-1,3-dioxo-2,3-dihydro-1H-isoindol-5-carbonyl]-amino}-propyl)-4-morpholinium chloride] | 22.7 |
| O=C(NCCN1CCCCC1)c1ccc2c(c1)C(=O)N(c1ccc(F)cc1)C2=O [Compound 19, 1-(2-{[2-(4-fluoro-phenyl)-1,3-dioxo-2,3-dihydro-1H-isoindol-5-carbonyl]-amino}-ethyl)-piperidinium chloride] | 45.7 |
| CC1CCCCN1CCCNC(=O)c1ccc2c(c1)C(=O)N(c1ccc(F)cc1)C2=O (stereo not drawn) [Compound 20, 1-(3-{[2-(4-fluoro-phenyl)-1,3-dioxo-2,3-dihydro-1H-isoindol-5-carbonyl]-amino}-propyl)-2-methyl-piperidinium chloride] | 44.7 |
| O=C(NCCCN1CCCC1)c1ccc2c(c1)C(=O)N(c1ccc(F)cc1)C2=O [Compound 22, 1-(3-{[2-(4-fluoro-phenyl)-1,3-dioxo-2,3-dihydro-1H-isoindol-5-carbonyl]-amino}-propyl)-pyrrolidinium chloride] | 19.3 |
| O=C(NCCN1CCOCC1)c1ccc2c(c1)C(=O)N(c1ccc(F)cc1)C2=O [Compound 23, 4-(2-{[2-(4-fluoro-phenyl)-1,3-dioxo-2,3-dihydro-1H-isoindol-5-carbonyl]-amino}-ethyl)-4-morpholinium chloride] | 14.5 |
| O=C(NCCCN1CCOCC1)c1ccc2c(c1)C(=O)N(c1ccc(F)cc1)C2=O [Compound 24, 4-(3-{[2-(4-fluoro-phenyl)-1,3-dioxo-2,3-dihydro-1H-isoindol-5-carbonyl]-amino}-propyl)-4-morpholinium chloride] | 21.4 |
| O=C(NCCN1CCCCC1)c1ccc2c(c1)C(=O)N(c1ccccc1Cl)C2=O [Compound 25, 1-(2-{[2-(2-chloro-phenyl)-1,3-dioxo-2,3-dihydro-1H-isoindol-5-carbonyl]-amino}-ethyl)-piperidinium chloride] | 38.2 |
| O=C(NCCN1CCCCC1)c1ccc2c(c1)C(=O)N(c1ccc(Cl)cc1)C2=O [Compound 27, 1-(2-{[2-(4-chloro-phenyl)-1,3-dioxo-2,3-dihydro-1H-isoindol-5-carbonyl]-amino}-ethyl)-piperidinium chloride] | 44.5 |
| Cc1ccccc1N1C(=O)c2ccc(C(=O)NCCCN3CCCCC3C)cc2C1=O (stereo not drawn) [Compound 29, 1-{3-[(1,3-dioxo-2-o-tolyl-2,3-dihydro-1H-isoindol-5-carbonyl)-amino]-propyl}-2-methyl-piperidinium chloride] | 53.8 |

Now from value to molecule:

| inhibition at 100 µM [%] | Structure (SMILES) |
| --- | --- |
| 28.1 | O=C(NCCN1CCCCC1)c1ccc2c(c1)C(=O)N(c1ccccc1)C2=O [Compound 1, 1-{2-[(1,3-dioxo-2-phenyl-2,3-dihydro-1H-isoindol-5-carbonyl)-amino]-ethyl}-piperidinium chloride] |
| 20.3 | O=C(NCCN1CCCC1)c1ccc2c(c1)C(=O)N(c1ccccc1)C2=O [Compound 3, 1-{2-[(1,3-dioxo-2-phenyl-2,3-dihydro-1H-isoindol-5-carbonyl)-amino]-ethyl}-pyrrolidinium chloride] |
| 38.7 | O=C(NCCCN1CCCC1)c1ccc2c(c1)C(=O)N(c1ccccc1)C2=O [Compound 4, 1-{3-[(1,3-dioxo-2-phenyl-2,3-dihydro-1H-isoindol-5-carbonyl)-amino]-propyl}-pyrrolidinium chloride] |
| 22.7 | O=C(NCCN1CCOCC1)c1ccc2c(c1)C(=O)N(c1ccccc1)C2=O [Compound 5, 4-{2-[(1,3-dioxo-2-phenyl-2,3-dihydro-1H-isoindol-5-carbonyl)-amino]-ethyl}-4-morpholinium chloride] |
| 39.7 | O=C(NCCN1CCCC1)c1ccc2c(c1)C(=O)N(c1ccccc1F)C2=O [Compound 9, 1-(2-{[2-(2-fluoro-phenyl)-1,3-dioxo-2,3-dihydro-1H-isoindol-5-carbonyl]-amino}-ethyl)-pyrrolidinium chloride] |
| 25.8 | O=C(NCCN1CCCC1)c1ccc2c(c1)C(=O)N(c1cccc(F)c1)C2=O [Compound 15, 1-(2-{[2-(3-fluoro-phenyl)-1,3-dioxo-2,3-dihydro-1H-isoindol-5-carbonyl]-amino}-ethyl)-pyrrolidinium chloride] |
| 19.4 | O=C(NCCN1CCCC1)c1ccc2c(c1)C(=O)N(c1ccc(F)cc1)C2=O [Compound 21, 1-(2-{[2-(4-fluoro-phenyl)-1,3-dioxo-2,3-dihydro-1H-isoindol-5-carbonyl]-amino}-ethyl)-pyrrolidinium chloride] |
| 52.7 | O=C(NCCN1CCCCC1)c1ccc2c(c1)C(=O)N(c1cccc(Cl)c1)C2=O [Compound 26, 1-(2-{[2-(3-chloro-phenyl)-1,3-dioxo-2,3-dihydro-1H isoindol-5-carbonyl]-amino}-ethyl)-piperidinium chloride] |
| 45.6 | Cc1ccccc1N1C(=O)c2ccc(C(=O)NCCN3CCCCC3)cc2C1=O [Compound 28, 1-{2-[(1,3-dioxo-2-o-tolyl-2,3-dihydro-1H-isoindol-5-carbonyl)-amino]-ethyl}-piperidinium chloride] |
| 33.6 | Cc1ccccc1N1C(=O)c2ccc(C(=O)NCCN3CCCC3)cc2C1=O [Compound 30, 1-{2-[(1,3-dioxo-2-o-tolyl-2,3-dihydro-1H-isoindol-5-carbonyl)-amino]-ethyl}-pyrrolidinium chloride] |
